From EP2350075B1, “SUBSTITUTED IMIDAZO[1,2B]PYRIDAZINE COMPOUNDS AS TRK KINASE INHIBITORS” (Array Biopharma, Inc., priority 2008, dated 2010)

Molecular target: T1, human TrkA (Homo sapiens, UniProt P04629)
T1 construct: histidine-tagged recombinant human TrkA, cytoplasmic domain; His tag; purchased Invitrogen Corp
Assay: TrkA ELISA assay
Format: biochemical
Details: 2.5 nM TrkA, 500 µM ATP, 25 minutes at ambient temperature; read-out: TrkA Elisa Enzyme IC50
Method: An enzyme-linked immunosorbant assay (ELISA) was used to assess TrkA kinase activity in the presence of inhibitors. […] The assay buffer consisted of 25 mM MOPS pH 7.5, 0.005% (v/v) Triton X-100 and 5 mM MgCl2. The reaction mixture was removed from the plate by washing with PBS containing 0.1% (v/v) Tween 20. […] After the addition of 1M phosphoric acid, the chromogenic substrate color intensity was quantitated via absorbance at 450 nm. IC50 values were calculated using either a 4 or 5-parameter logistic curve fit.

T1 sequence (P04629 440-796 limits assumed): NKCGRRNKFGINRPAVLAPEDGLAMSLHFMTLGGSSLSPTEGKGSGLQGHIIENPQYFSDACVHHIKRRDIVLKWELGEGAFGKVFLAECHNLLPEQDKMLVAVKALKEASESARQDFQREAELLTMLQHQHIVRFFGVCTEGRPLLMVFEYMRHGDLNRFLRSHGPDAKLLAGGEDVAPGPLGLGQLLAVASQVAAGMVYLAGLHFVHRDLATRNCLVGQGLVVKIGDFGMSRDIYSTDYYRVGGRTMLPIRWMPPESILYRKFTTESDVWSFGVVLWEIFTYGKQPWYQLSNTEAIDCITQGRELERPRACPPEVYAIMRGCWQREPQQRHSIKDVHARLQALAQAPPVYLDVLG

SMILES: CS(=O)(=O)Nc1ccc(C(=O)Nc2cnc3ccc(N4CCC[C@@H]4c4cc(F)ccc4F)nn23)cc1 [Example 4, (R)-N-(6-(2-(2,5-difluorophenyl)pyrrolidin-1-yl)imidazo[1,2-b]pyridazin-3-yl)-4-(methylsulfonamido)benzamide]
- IC50: 2.1 nM

SMILES: COc1ccc(NC(=O)Nc2cnc3ccc(N4CCC[C@@H]4c4cc(F)ccc4F)nn23)cc1 [Example 30, (R)-1-(6-(2-(2,5-difluorophenyl)pyrrolidin-1-yl)imidazo[1,2-b]pyridazin-3-yl)-3-(4-methoxyphenyl)urea]
- IC50: 5.5 nM

SMILES: O=C(Nc1cnc2ccc(N3CCCCC3c3cccc(F)c3)nn12)N1CC(O)C1 (stereo not drawn) [Example 43, N-(6-(2-(3-fluorophenyl)piperidin-1-yl)imidazo[1,2-b]pyridazin-3-yl)-3-hydroxyazetidine-1-carboxamide]
- IC50: 216 nM

SMILES: N#Cc1cccc(NC(=O)Nc2cnc3ccc(N4CCC[C@@H]4c4cc(F)ccc4F)nn23)c1 [Example 5, (R)-1-(3-cyanophenyl)-3-(6-(2-(2,5-difluorophenyl)pyrrolidin-1-yl)imidazo[1,2-b]pyridazin-3-yl)urea]
- IC50: 74.2 nM

SMILES: N#Cc1ccc(NC(=O)Nc2cnc3ccc(N4CCC[C@@H]4c4cc(F)ccc4F)nn23)cc1 [Example 6, (R)-1-(4-cyanophenyl)-3-(6-(2-(2,5-difluorophenyl)pyrrolidin-1-yl)imidazo[1,2-b]pyridazin-3-yl)urea]
- IC50: 10.7 nM

SMILES: O=C(Nc1ccc(Cl)cc1Cl)Nc1cnc2ccc(N3CCC[C@@H]3c3cc(F)ccc3F)nn12 [Example 7, (R)-1-(2,4-dichlorophenyl)-3-(6-(2-(2,5-difluorophenyl)pyrrolidin-1-yl)imidazo[1,2-b]pyridazin-3-yl)urea]
- IC50: 39.4 nM

SMILES: COc1cc(NC(=O)Nc2cnc3ccc(N4CCC[C@@H]4c4cc(F)ccc4F)nn23)cc(OC)c1OC [Example 32, (R)-1-(6-(2-(2,5-difluorophenyl)pyrrolidin-1-yl)imidazo[1,2-b]pyridazin-3-yl)-3-(3,4,5-trimethoxyphenyl)urea]
- IC50: 176 nM

SMILES: Cn1cc(C(=O)Nc2cnc3ccc(N4CCC[C@@H]4c4cc(F)ccc4F)nn23)ccc1=O [Example 56, (R)-N-(6-(2-(2,5-difluorophenyl)pyrrolidin-1-yl)imidazo[1,2-b]pyridazin-3-yl)-1-methyl-6-oxo-1,6-dihydropyridine-3-carboxamide]
- IC50: 10.2 nM

SMILES: O=C(Nc1cccc(C(F)(F)F)c1)Nc1cnc2ccc(N3CCC[C@@H]3c3cc(F)ccc3F)nn12 [Example 8, (R)-1-(6-(2-(2,5-difluorophenyl)pyrrolidin-1-yl)imidazo[1,2-b]pyridazin-3-yl)-3-(3-(trifluoromethyl)phenyl)urea]
- IC50: 508 nM

SMILES: Cn1nc(C(=O)Nc2cnc3ccc(N4CCC[C@@H]4c4cc(F)ccc4F)nn23)ccc1=O [Example 57, (R)-N-(6-(2-(2,5-difluorophenyl)pyrrolidin-1-yl)imidazo[1,2-b]pyridazin-3-yl)-1-methyl-6-oxo-1,6-dihydropyridazine-3-carboxamide]
- IC50: 2.3 nM

SMILES: CC(C)(C)OC(=O)N1CCN(C(=O)Nc2cnc3ccc(N4CCC[C@@H]4c4cc(F)ccc4F)nn23)CC1(C)C [Example 48, (R)-tert-butyl 4-(6-(2-(2,5-difluorophenyl)pyrrolidin-1-yl)imidazo[1,2-b]pyridazin-3-ylcarbamoyl)-2,2-dimethylpiperazine-1-carboxylate]
- IC50: 8.3 nM

SMILES: Cc1noc(C)c1NC(=O)Nc1cnc2ccc(N3CCC[C@@H]3c3cc(F)ccc3F)nn12 [Example 33, (R)-1-(6-(2-(2,5-difluorophenyl)pyrrolidin-1-yl)imidazo[1,2-b]pyridazin-3-yl)-3-(3,5-dimethylisoxazol-4-yl)urea]
- IC50: 901 nM
